Test results as given in ChEMBL document CHEMBL1129336, “Ryanodine action at calcium release channels. 2. relation to substituents of the cyclohexane ring” (J Med Chem, 1996).

Biological target: Ryanodine receptor 2 (Mus musculus) (UniProt E9Q401)
Assay: Displacement of [3H]ryanodine from ryanodine receptor(ryr) of Mouse brain

Chain of Ryanodine receptor 2 (Mus musculus) (E9Q401 whole entry, looked up): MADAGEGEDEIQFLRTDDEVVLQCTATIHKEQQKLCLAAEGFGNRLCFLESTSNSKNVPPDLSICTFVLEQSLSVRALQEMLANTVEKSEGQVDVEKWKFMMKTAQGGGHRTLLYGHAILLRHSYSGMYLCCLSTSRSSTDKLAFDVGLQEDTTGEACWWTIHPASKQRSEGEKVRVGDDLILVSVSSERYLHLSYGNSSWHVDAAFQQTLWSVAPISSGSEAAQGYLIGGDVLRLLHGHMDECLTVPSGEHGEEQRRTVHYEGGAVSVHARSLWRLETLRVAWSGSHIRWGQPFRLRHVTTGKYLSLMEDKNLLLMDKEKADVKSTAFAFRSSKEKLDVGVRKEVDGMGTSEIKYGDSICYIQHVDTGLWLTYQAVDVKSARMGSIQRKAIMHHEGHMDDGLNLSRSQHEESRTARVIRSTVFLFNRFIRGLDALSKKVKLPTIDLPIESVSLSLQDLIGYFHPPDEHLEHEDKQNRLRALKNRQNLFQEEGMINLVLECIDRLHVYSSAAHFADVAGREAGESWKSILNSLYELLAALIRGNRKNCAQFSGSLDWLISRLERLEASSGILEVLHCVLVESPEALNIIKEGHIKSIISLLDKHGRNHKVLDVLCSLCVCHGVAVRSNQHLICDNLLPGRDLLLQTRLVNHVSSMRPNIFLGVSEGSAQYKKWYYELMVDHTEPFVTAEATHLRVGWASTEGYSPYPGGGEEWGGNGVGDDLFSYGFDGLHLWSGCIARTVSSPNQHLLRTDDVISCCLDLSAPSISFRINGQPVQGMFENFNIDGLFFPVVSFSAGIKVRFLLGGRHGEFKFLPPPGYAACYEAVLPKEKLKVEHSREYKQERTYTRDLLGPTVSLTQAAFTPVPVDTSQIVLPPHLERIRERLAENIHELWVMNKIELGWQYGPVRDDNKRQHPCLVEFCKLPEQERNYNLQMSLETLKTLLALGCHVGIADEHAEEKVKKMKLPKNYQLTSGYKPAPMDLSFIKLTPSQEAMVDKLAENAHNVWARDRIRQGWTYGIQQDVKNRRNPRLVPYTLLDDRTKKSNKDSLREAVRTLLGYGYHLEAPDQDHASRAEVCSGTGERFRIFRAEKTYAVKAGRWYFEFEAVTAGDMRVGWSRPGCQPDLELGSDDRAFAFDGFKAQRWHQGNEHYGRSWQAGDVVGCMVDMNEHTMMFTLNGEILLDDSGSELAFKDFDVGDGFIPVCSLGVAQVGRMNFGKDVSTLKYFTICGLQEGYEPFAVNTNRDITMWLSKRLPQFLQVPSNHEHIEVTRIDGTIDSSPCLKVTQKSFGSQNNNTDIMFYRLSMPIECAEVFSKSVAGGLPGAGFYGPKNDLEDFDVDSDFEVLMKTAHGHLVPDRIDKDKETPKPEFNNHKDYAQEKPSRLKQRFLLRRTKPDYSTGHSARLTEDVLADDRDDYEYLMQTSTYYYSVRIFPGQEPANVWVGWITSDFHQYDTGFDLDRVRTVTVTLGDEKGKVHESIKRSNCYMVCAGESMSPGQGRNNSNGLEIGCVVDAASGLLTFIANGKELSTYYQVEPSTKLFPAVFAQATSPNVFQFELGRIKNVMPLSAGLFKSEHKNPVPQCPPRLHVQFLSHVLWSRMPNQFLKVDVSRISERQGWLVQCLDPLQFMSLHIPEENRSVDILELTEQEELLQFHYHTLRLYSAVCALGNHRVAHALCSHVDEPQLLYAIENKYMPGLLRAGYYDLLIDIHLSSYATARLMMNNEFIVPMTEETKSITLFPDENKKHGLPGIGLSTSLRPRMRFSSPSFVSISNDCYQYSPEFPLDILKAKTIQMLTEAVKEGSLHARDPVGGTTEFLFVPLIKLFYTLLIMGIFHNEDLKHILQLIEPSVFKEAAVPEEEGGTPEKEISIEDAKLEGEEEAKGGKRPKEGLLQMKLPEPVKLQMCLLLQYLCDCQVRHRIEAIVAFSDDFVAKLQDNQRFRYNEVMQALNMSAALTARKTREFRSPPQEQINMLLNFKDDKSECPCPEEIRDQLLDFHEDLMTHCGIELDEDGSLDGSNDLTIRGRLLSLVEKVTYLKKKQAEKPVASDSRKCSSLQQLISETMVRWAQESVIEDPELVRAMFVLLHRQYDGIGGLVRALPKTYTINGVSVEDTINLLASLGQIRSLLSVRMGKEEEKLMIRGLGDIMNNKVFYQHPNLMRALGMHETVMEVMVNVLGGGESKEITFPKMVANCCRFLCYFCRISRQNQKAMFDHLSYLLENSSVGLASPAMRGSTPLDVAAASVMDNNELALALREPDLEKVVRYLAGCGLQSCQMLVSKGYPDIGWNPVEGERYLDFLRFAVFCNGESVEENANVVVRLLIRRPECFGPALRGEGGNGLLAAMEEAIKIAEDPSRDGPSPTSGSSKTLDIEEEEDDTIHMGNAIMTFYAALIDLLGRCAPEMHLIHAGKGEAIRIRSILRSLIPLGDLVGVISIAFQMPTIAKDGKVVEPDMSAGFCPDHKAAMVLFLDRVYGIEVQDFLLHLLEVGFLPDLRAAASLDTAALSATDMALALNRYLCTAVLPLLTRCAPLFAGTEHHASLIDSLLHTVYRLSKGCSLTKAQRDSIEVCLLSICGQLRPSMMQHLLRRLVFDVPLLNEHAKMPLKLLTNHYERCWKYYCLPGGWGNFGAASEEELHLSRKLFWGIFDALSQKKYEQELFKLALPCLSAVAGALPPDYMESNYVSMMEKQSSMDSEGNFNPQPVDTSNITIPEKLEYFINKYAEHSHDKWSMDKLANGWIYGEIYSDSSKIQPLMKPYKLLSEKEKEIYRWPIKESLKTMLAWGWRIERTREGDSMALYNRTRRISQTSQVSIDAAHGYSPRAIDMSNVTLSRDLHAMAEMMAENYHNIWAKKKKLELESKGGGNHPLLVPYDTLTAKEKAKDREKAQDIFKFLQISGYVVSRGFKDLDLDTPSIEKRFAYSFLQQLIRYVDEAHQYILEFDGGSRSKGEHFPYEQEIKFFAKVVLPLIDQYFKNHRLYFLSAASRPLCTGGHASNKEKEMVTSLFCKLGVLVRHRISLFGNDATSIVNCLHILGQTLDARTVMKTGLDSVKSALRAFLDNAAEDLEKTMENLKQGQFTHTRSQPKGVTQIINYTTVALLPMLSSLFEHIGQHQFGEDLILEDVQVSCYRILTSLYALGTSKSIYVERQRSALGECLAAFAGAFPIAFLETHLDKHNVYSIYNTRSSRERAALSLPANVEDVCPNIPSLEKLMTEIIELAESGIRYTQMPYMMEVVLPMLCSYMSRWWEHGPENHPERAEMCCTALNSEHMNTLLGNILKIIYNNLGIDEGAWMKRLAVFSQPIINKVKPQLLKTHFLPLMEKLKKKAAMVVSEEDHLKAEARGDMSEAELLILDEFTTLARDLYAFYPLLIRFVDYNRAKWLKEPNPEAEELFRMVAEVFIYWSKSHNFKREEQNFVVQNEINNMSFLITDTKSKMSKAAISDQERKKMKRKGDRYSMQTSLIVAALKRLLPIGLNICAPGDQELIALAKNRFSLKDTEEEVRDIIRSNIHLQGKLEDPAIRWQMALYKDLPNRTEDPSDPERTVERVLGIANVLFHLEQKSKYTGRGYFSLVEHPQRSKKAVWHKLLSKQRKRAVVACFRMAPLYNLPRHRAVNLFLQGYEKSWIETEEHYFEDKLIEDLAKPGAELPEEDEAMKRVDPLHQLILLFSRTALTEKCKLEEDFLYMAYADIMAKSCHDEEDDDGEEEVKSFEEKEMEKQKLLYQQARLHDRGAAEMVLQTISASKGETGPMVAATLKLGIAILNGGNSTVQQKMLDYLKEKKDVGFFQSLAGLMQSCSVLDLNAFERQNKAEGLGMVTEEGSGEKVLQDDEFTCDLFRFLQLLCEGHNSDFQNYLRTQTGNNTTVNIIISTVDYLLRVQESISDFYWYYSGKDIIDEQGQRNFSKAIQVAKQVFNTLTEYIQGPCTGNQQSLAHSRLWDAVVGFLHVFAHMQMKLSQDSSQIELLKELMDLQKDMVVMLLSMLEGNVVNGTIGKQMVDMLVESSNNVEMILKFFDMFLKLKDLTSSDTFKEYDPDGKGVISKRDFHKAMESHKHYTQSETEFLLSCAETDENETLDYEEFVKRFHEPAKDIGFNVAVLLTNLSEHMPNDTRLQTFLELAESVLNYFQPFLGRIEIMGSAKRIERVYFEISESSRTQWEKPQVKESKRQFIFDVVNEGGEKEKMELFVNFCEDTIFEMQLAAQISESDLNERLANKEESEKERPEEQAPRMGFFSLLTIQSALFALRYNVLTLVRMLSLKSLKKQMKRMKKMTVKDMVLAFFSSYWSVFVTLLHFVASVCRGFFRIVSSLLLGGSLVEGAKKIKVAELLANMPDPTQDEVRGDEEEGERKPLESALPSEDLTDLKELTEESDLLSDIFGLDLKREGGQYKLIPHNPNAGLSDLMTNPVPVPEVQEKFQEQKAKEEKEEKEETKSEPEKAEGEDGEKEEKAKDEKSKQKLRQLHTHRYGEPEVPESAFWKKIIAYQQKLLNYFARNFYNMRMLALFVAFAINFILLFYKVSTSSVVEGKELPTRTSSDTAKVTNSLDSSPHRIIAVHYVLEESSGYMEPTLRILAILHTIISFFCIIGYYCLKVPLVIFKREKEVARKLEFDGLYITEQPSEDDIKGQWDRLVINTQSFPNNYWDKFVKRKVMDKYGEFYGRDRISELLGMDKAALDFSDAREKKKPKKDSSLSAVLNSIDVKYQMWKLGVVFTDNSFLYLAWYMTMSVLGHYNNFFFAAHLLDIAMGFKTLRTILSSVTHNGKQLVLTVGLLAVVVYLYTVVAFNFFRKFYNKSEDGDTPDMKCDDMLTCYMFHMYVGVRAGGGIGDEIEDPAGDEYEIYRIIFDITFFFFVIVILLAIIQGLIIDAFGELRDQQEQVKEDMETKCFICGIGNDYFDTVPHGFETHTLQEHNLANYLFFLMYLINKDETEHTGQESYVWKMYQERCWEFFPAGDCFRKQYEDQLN

## C=C1CCC2(O)C3(C)CC4(O)OC2(C1OC(=O)c1ccccc1)C1(O)C3(O)C(OC(=O)c2ccc[nH]2)C(O)(C(C)C)C41C (stereo not given)
  Relative activity: 17

## CC(C)C1(O)C(OC(=O)c2ccc[nH]2)C2(O)C3(C)CC4(O)OC5(CC(O)CCC35O)C2(O)C41C (stereo not given)
  Relative activity: 0.4

## CC1CCC2(O)C3(C)CC4(O)OC2(C1N)C1(O)C3(O)C(OC(=O)c2ccc[nH]2)C(O)(C(C)C)C41C (stereo not given)
  Relative activity: 65

## CC(C)C1(O)C(OC(=O)c2ccc[nH]2)C2(O)C3(C)CC4(O)OC5(CCCCC35O)C2(O)C41C (stereo not given)
  Relative activity: 18

## CO/N=C1\C(C)CCC2(O)C3(C)CC4(O)OC12C1(O)C3(O)C(OC(=O)c2ccc[nH]2)C(O)(C(C)C)C41C (stereo not given)
  Relative activity: 13
